According to patent US9981940B2, “Aryl sulfide derivatives and aryl sulfoxide derivatives as acaricides and insecticides” (BAYER CROPSCIENCE AKTIENGESELLSCHAFT, priority 2013, dated 2018):

Assays:
[1] = log P by HPLC (OECD Guideline 117), method [b] neutral range; assay type: physicochemical; settings: HPLC; for chromatographic logP: reversed-phase C18 HPLC column, neutral range, pH 7.8; for logP[b]: method [b] neutral range
Description: (§1) The log P values were determined analogously to OECD Guideline 117 (EC Directive 92/69/EEC) by HPLC (high-performance liquid chromatography) using reversed-phase columns (C 18), by the following methods:
[b] The LC-MS determination in the neutral range is effected at pH 7.8 with 0.001 molar aqueous ammonium hydrogencarbonate solution and acetonitrile as eluents; linear gradient from 10% acetonitrile to 95% acetonitrile.

[2] = log P by HPLC (OECD Guideline 117), method [a] acidic range; assay type: physicochemical; settings: for chromatographic logP: reversed-phase C18 HPLC column, acidic range; for logP[a]: HPLC, method [a] acidic range
Description: as §1
[a] The LC-MS determination in the acidic range is effected at pH 2.7 with 0.1% aqueous formic acid and acetonitrile (contains 0.1% formic acid) as eluents; linear gradient from 10% acetonitrile to 95% acetonitrile.

Phaedon cochleariae = Phaedon cochleariae spray test (PHAECO); assay type: in vivo; settings: application rate of 500 g/ha, after 7 days; for pest or weed control at 500 g/ha: Phaedon cochleariae, 168 h, read-out: efficacy
Description: Phaedon cochleariae—Spray Test (PHAECO)
• Solvent: 78.0 parts by weight of acetone • 1.5 parts by weight of dimethylformamide • Emulsifier: 0.5 part by weight of alkylaryl polyglycol ether
To produce an appropriate active ingredient formulation, 1 part by weight of active ingredient is mixed with the specified amounts of solvent and emulsifier, and the concentrate is diluted to the desired concentration with emulsifier-containing water.
Discs of Chinese cabbage leaves (Brassica pekinensis) are sprayed with an active ingredient formulation of the desired concentration and, after drying, populated with larvae of the mustard beetle (Phaedon cochleariae).
After 7 days, the efficacy in % is determined 100% means that all beetle larvae have been killed; 0% means that none of the beetle larvae have been killed.

Tetranychus urticae = Tetranychus urticae spray test, OP-resistant (TETRUR); assay type: in vivo; settings: application rate of 500 g/ha, after 6 days; for pest or weed control at 500 g/ha: Tetranychus urticae, 144 h, read-out: efficacy
Method in brief: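 Bean leaf discs infested with all stages of an OP-resistant Tetranychus urticae strain sprayed with compound in acetone/DMF with alkylaryl polyglycol ether emulsifier, diluted in water. Efficacy in % scored after 6 days; 100% means all mites killed.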

Boophilus microplus = Boophilus microplus injection test (BOOPMI Inj); assay type: in vivo; settings: application rate of 20 μg/animal, assessed after 7 days by laying of fertile eggs
Description: Use Examples Boophilus microplus Injection Test (BOOPMI Inj) • Solvent: dimethyl sulphoxide
To prepare an appropriate active ingredient formulation, 10 mg of active ingredient are mixed with 0.5 ml of solvent and the concentrate is diluted with solvent to the desired concentration.
1 μl of the active ingredient solution is injected into the abdomen of 5 engorged adult female cattle ticks (Boophilus microplus). The animals are transferred into dishes and kept in a climate-controlled room.
The efficacy is assessed after 7 days by laying of fertile eggs. Eggs which are not visibly fertile are stored in a climate-controlled cabinet until the larvae hatch after about 42 days.
An efficacy of 100% means that none of the ticks has laid any fertile eggs; 0% means that all the eggs are fertile.

[3] = pH 2.7, HPLC method [a], read-out: logP[a]
[4] = pH 2.7, HPLC, pH 2.7, read-out: log P[a]

SMILES | chromatographic logP [1] | chromatographic logP [2, 3] | chromatographic logP [2, 4] | pest or weed control at 500 g/ha (Phaedon cochleariae) [%] | logP[b] [1] | efficacy (Tetranychus urticae) [%] | logP[a] [2] | efficacy (Phaedon cochleariae) [%] | pest or weed control at 500 g/ha (Tetranychus urticae) [%] | efficacy (Boophilus microplus) [%]
Cc1cc(F)c(-n2nn[nH]c2=O)cc1[S+]([O-])CC(F)(F)F (stereo not shown) [Example 303, 1-{2-Fluoro-4-methyl-5-[(2,2,2-trifluoroethyl)sulphinyl]phenyl}-1,4-dihydro-5H-tetrazol-5-one] | 0.37 | 1.59 | 1.59 | 100 | – | – | – | – | – | –
Cc1cc(F)c(-n2ncn(-c3ccc(F)cc3)c2=O)cc1SCC(F)(F)F [Example 349] | – | – | – | – | 3.40 | 90 | 3.48 | 100 | – | –
Cc1cc(F)c(-n2nc(C)n(C)c2=O)cc1[S+]([O-])CC(F)(F)F (stereo not shown) [Example 11, 2-{2-Fluoro-4-methyl-5-[(2,2,2-trifluoroethyl)sulphinyl]phenyl}-4,5-dimethyl-2,4-dihydro-3H-1,2,4-triazol-3-one] | 1.5 | 1.57 | 1.57 | 100 | – | – | – | – | 100 | –
Cc1cc(F)c(-n2nc(NC(C)C)n(N)c2=O)cc1[S+]([O-])CC(F)(F)F (stereo not shown) [Example 225] | – | – | – | – | 1.83 | 100 | 1.87 | 100 | – | –
Cc1cc(F)c(-n2nc(Cl)n(C)c2=O)cc1[S+]([O-])CC(F)(F)F (stereo not shown) [Example 437] | – | – | – | – | 1.98 | 90 | 2.00 | 83 | – | –
Cc1cc(Cl)c([S+]([O-])CC(F)(F)F)cc1-n1nc(OCC(F)(F)F)n(C2CC2)c1=O (racemic) [Example 384] | – | – | – | – | 2.97 | 100 | 3.06 | – | – | 100
Cc1cc(F)c(-n2nnn(C)c2=O)cc1SCC(F)(F)F [Example 302, 1-{2-Fluoro-4-methyl-5-[(2,2,2-trifluoroethyl)sulphanyl]phenyl}-4-methyl-1,4-dihydro-5H-tetrazol-5-one] | 2.86 | 2.89 | 2.89 | – | – | – | – | – | 100 | 100
Cc1cc(F)c(-n2nc(Br)n(C(C)C)c2=O)cc1SCC(F)(F)F [Example 439, 5-Bromo-2-{2-fluoro-4-methyl-5-[(2,2,2-trifluoroethyl)sulphanyl]phenyl}-4-isopropyl-2,4-dihydro-3H-1,2,4-triazol-3-one] | 3.8 | 3.83 | 3.83 | – | – | – | – | – | 100 | 100
Cc1cc(F)c(-n2nc(Br)n(C(C)C)c2=O)cc1[S+]([O-])CC(F)(F)F (stereo not shown) [Example 442, 5-Bromo-2-{2-fluoro-4-methyl-5-[(2,2,2-trifluoroethyl)sulphinyl]phenyl}-4-isopropyl-2,4-dihydro-3H-1,2,4-triazol-3-one] | 2.62 | 2.68 | 2.68 | – | – | – | – | – | 100 | 100
Cc1cc(F)c(-n2nc([S+]([O-])C(C)C)n(C)c2=O)cc1[S+]([O-])CC(F)(F)F (stereo not shown) [Example 245] | – | – | – | – | 1.90 | 100 | 1.94 | – | – | 100
COc1nn(-c2cc([S+]([O-])CC(F)(F)F)c(C)cc2C)c(=O)n1C1CC1 (stereo not shown) [Example 119] | – | – | – | – | 2.17 | 90 | 2.21 | – | – | 100
COC1=CC(=O)N(c2ccc(C(F)(F)F)c(SCC(F)(F)F)c2)C1 [Example 322] | – | – | – | – | 3.25 | – | 3.31 | 100 | – | –
Cc1cc(F)c(-n2nc(Br)n(C3CC3)c2=O)cc1[S+]([O-])CC(F)(F)F (racemic) [Example 295] | – | – | – | – | 2.34 | 100 | 2.39 | – | – | 100
COc1nn(-c2cc([S+]([O-])CC(F)(F)F)c(C)cc2F)c(=O)n1C (stereo not shown) [Example 94] | – | – | – | – | 1.77 | – | 1.77 | 83 | – | –
